# According to ChEMBL document CHEMBL1201861, “Genomics of Drug Sensitity in Cancer screening data, Wellcome Trust Sanger Institute”:
# What was measured:
# Assay in all cases: cells
# COLO-824 = format: functional, cell-based, Homo sapiens; details: Homo sapiens, COLO-824
# Description: SANGER: Inhibition of human COLO-824 cell growth in a cell viability assay.
# DMS-79 = format: functional, cell-based; details: Homo sapiens;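 further: growth inhibition measured with a cell viability assay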
# Description: SANGER: Inhibition of human DMS-79 cell growth in a cell viability assay.
# EKVX = format: functional, cell-based, Homo sapiens; details: Homo sapiens, EKVX;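 further: growth inhibition of human EKVX cells, read out with a cell viability assay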
# Description: SANGER: Inhibition of human EKVX cell growth in a cell viability assay.
# ETK-1 = format: functional, cell-based, Homo sapiens; details: Homo sapiens, ETK-1;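 further: growth inhibition of human ETK-1 cells, read out with a cell viability assay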
# Description: SANGER: Inhibition of human ETK-1 cell growth in a cell viability assay.
# EW-18 = format: functional, cell-based; details: Homo sapiens;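 further: growth inhibition of EW-18 cells, read out by a cell viability assay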
# Description: SANGER: Inhibition of human EW-18 cell growth in a cell viability assay.
# GI-1 = format: functional, cell-based, Homo sapiens; details: Homo sapiens, GI-1;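 further: growth inhibition of human GI-1 cells, measured with a cell viability readout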
# Description: SANGER: Inhibition of human GI-1 cell growth in a cell viability assay.
# HCC1187 = format: functional, cell-based, Homo sapiens; details: Homo sapiens, HCC1187;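 further: growth inhibition of HCC1187 cells, read out with a cell viability assay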
# Description: SANGER: Inhibition of human HCC1187 cell growth in a cell viability assay.
# HCC38 = format: functional, cell-based, Homo sapiens; details: Homo sapiens, HCC38;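 further: cell viability assay on the human HCC38 cell line, with IC50 marking the concentration that inhibits cell growth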
# Description: SANGER: Inhibition of human HCC38 cell growth in a cell viability assay.
# HSC-3 = format: functional, cell-based, Homo sapiens; details: Homo sapiens, HSC-3
# Description: SANGER: Inhibition of human HSC-3 cell growth in a cell viability assay.
# JEG-3 = format: functional, cell-based, Homo sapiens; details: Homo sapiens, JEG-3;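 further: growth inhibition of human JEG-3 cells, read out with a cell viability assay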
# Description: SANGER: Inhibition of human JEG-3 cell growth in a cell viability assay.
# K5 = format: functional, cell-based, Homo sapiens; details: Homo sapiens, K5
# Description: SANGER: Inhibition of human K5 cell growth in a cell viability assay.
# KARPAS-45 = format: functional, cell-based; details: Homo sapiens;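 further: inhibition of cell line growth, read out through a viability assay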
# Description: SANGER: Inhibition of human KARPAS-45 cell growth in a cell viability assay.
# KU812 cell line = format: functional, cell-based; details: Homo sapiens;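 further: growth inhibition of KU812 cells, read out with a cell viability assay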
# Description: SANGER: Inhibition of human KU812 cell growth in a cell viability assay.
# KYSE-140 = format: functional, cell-based, Homo sapiens; details: Homo sapiens, KYSE-140;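 further: cell viability assay measuring growth inhibition in human KYSE-140 cells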
# Description: SANGER: Inhibition of human KYSE-140 cell growth in a cell viability assay.
# KYSE-270 = format: functional, cell-based, Homo sapiens; details: Homo sapiens, KYSE-270;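 further: cell growth inhibition measured with a viability assay in the human KYSE-270 line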
# Description: SANGER: Inhibition of human KYSE-270 cell growth in a cell viability assay.
# LS-1034 = format: functional, cell-based, Homo sapiens; details: Homo sapiens, LS-1034
# Description: SANGER: Inhibition of human LS-1034 cell growth in a cell viability assay.
# MDA-MB-157 = format: functional, cell-based, Homo sapiens; details: Homo sapiens, MDA-MB-157
# Description: SANGER: Inhibition of human MDA-MB-157 cell growth in a cell viability assay.
# MDA-MB-231 = format: functional, cell-based, Homo sapiens; details: Homo sapiens, MDA-MB-231
# Description: SANGER: Inhibition of human MDA-MB-231 cell growth in a cell viability assay.
# MEL-HO = format: functional, cell-based, Homo sapiens; details: Homo sapiens, MEL-HO
# Description: SANGER: Inhibition of human MEL-HO cell growth in a cell viability assay.
# NB13 = format: functional, cell-based, Homo sapiens; details: Homo sapiens, NB13;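 further: cell viability readout measuring growth inhibition of human NB13 cells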
# Description: SANGER: Inhibition of human NB13 cell growth in a cell viability assay.
# NB69 = format: functional, cell-based, Homo sapiens; details: Homo sapiens, NB69;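 further: growth inhibition of NB69 cells, determined by a cell viability assay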
# Description: SANGER: Inhibition of human NB69 cell growth in a cell viability assay.
# NCI-H1304 = format: functional, cell-based; details: Homo sapiens;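 further: growth inhibition of the cancer cell line, measured in a cell viability assay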
# Description: SANGER: Inhibition of human NCI-H1304 cell growth in a cell viability assay.
# NCI-H1355 = format: functional, cell-based, Homo sapiens; details: Homo sapiens, NCI-H1355;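 further: growth inhibition of human NCI-H1355 cells, read out by a cell viability assay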
# Description: SANGER: Inhibition of human NCI-H1355 cell growth in a cell viability assay.
# NCI-H292 = format: functional, cell-based, Homo sapiens; details: Homo sapiens, NCI-H292;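 further: growth inhibition of NCI-H292 cells, read out with a cell viability assay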
# Description: SANGER: Inhibition of human NCI-H292 cell growth in a cell viability assay.
# NCI-H596 = format: functional, cell-based, Homo sapiens; details: Homo sapiens, NCI-H596;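 further: growth inhibition of NCI-H596 cells, read out with a cell viability assay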
# Description: SANGER: Inhibition of human NCI-H596 cell growth in a cell viability assay.
# NUGC-3 = format: functional, cell-based, Homo sapiens; details: Homo sapiens, NUGC-3;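 further: growth inhibition of human NUGC-3 cells, read out with a cell viability assay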
# Description: SANGER: Inhibition of human NUGC-3 cell growth in a cell viability assay.
# OCI-AML2 = format: functional, cell-based; details: Homo sapiens;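 further: growth inhibition of OCI-AML2 cells, read out with a cell viability assay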
# Description: SANGER: Inhibition of human OCI-AML2 cell growth in a cell viability assay.
# OMC-1 = format: functional, cell-based, Homo sapiens; details: Homo sapiens, OMC-1;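 further: growth inhibition of the OMC-1 cell line, measured by a cell viability assay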
# Description: SANGER: Inhibition of human OMC-1 cell growth in a cell viability assay.
# RERF-LC-MS = format: functional, cell-based, Homo sapiens; details: Homo sapiens, RERF-LC-MS;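 further: growth inhibition of human RERF-LC-MS cells, read out by a cell viability assay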
# Description: SANGER: Inhibition of human RERF-LC-MS cell growth in a cell viability assay.
# RPMI-7951 = format: functional, cell-based, Homo sapiens; details: Homo sapiens, RPMI-7951
# Description: SANGER: Inhibition of human RPMI-7951 cell growth in a cell viability assay.
# SCC-15 = format: functional, cell-based, Homo sapiens; details: Homo sapiens, SCC-15;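 further: growth inhibition of SCC-15 cells, read out with a cell viability assay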
# Description: SANGER: Inhibition of human SCC-15 cell growth in a cell viability assay.
# SK-LU-1 = format: functional, cell-based, Homo sapiens; details: Homo sapiens, SK-LU-1;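 further: cell viability assay measuring growth inhibition of human SK-LU-1 cells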
# Description: SANGER: Inhibition of human SK-LU-1 cell growth in a cell viability assay.
# SK-PN-DW = format: functional, cell-based; details: Homo sapiens;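 further: growth inhibition measured with a viability assay on these cells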
# Description: SANGER: Inhibition of human SK-PN-DW cell growth in a cell viability assay.
# SK-UT-1 = format: functional, cell-based, Homo sapiens; details: Homo sapiens, SK-UT-1;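 further: growth inhibition of SK-UT-1 cells, measured by a cell viability assay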
# Description: SANGER: Inhibition of human SK-UT-1 cell growth in a cell viability assay.
# SW1783 = format: functional, cell-based; details: Homo sapiens;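 further: cell growth inhibition measured with a viability assay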
# Description: SANGER: Inhibition of human SW1783 cell growth in a cell viability assay.
# SW626 = format: functional, cell-based, Homo sapiens; details: Homo sapiens, SW626;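 further: growth inhibition of SW626 cells, measured with a cell viability assay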
# Description: SANGER: Inhibition of human SW626 cell growth in a cell viability assay.
# SW948 = format: functional, cell-based, Homo sapiens; details: Homo sapiens, SW948;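 further: growth inhibition of SW948 cells, read out with a cell viability assay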
# Description: SANGER: Inhibition of human SW948 cell growth in a cell viability assay.
# SiHa = format: functional, cell-based, Homo sapiens; details: Homo sapiens, SiHa;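 further: Viability-based readout of growth inhibition in SiHa cells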
# Description: SANGER: Inhibition of human SiHa cell growth in a cell viability assay.
# T84 = format: functional, cell-based, Homo sapiens; details: Homo sapiens, T84;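 further: growth inhibition measured with a cell viability readout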
# Description: SANGER: Inhibition of human T84 cell growth in a cell viability assay.
# ALL-PO = format: functional, cell-based; details: Homo sapiens;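 further: growth inhibition of ALL-PO cells, read out by a cell viability assay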
# Description: SANGER: Inhibition of human ALL-PO cell growth in a cell viability assay.
# ATN-1 = format: functional, cell-based; details: Homo sapiens;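 further: growth inhibition of human ATN-1 cells, read out with a cell viability assay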
# Description: SANGER: Inhibition of human ATN-1 cell growth in a cell viability assay.
# BB30-HNC = format: functional, cell-based, Homo sapiens; details: Homo sapiens, BB30-HNC;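 further: growth inhibition of the cultured cell line, read out by a cell viability assay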
# Description: SANGER: Inhibition of human BB30-HNC cell growth in a cell viability assay.
# CAL-85-1 = format: functional, cell-based; details: Homo sapiens;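 further: growth inhibition of human CAL-85-1 cells, read out with a cell viability assay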
# Description: SANGER: Inhibition of human CAL-85-1 cell growth in a cell viability assay.
# TE-8 = format: functional, cell-based, Homo sapiens; details: Homo sapiens, TE-8;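 further: growth inhibition of TE-8 cells, measured with a cell viability readout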
# Description: SANGER: Inhibition of human TE-8 cell growth in a cell viability assay.
# TK-10 = format: functional, cell-based, Homo sapiens; details: Homo sapiens, TK-10;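 further: growth inhibition of TK-10 cells, read out in a cell viability assay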
# Description: SANGER: Inhibition of human TK10 cell growth in a cell viability assay.
# U-118-MG = format: functional, cell-based, Homo sapiens; details: Homo sapiens, U-118-MG
# Description: SANGER: Inhibition of human U-118-MG cell growth in a cell viability assay.
# UO-31 = format: functional, cell-based; details: Homo sapiens;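 further: cell viability assay measuring inhibition of cell growth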
# Description: SANGER: Inhibition of human U031 cell growth in a cell viability assay.
# UMUC3 = format: functional, cell-based, Homo sapiens; details: Homo sapiens, UMUC3;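 further: growth inhibition of human UM-UC-3 cells, read out with a cell viability assay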
# Description: SANGER: Inhibition of human UM-UC-3 cell growth in a cell viability assay.
# CCRF-CEM = format: functional, cell-based; details: Homo sapiens;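 further: inhibition of CCRF-CEM cell growth, measured by a cell viability assay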
# Description: SANGER: Inhibition of human CCRF-CEM cell growth in a cell viability assay.
# COLO-320-HSR = format: functional, cell-based; details: Homo sapiens;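 further: growth inhibition of COLO-320-HSR cells, determined with a cell viability assay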
# Description: SANGER: Inhibition of human COLO-320-HSR cell growth in a cell viability assay.
# COLO-668 = format: functional, cell-based, Homo sapiens; details: Homo sapiens, COLO-668
# Description: SANGER: Inhibition of human COLO-668 cell growth in a cell viability assay.
# COLO-684 = format: functional, cell-based; details: Homo sapiens
# Description: SANGER: Inhibition of human COLO-684 cell growth in a cell viability assay.
smiles,measurement,setting,value
CN(c1ncccc1CNc1nc(Nc2ccc3c(c2)CC(=O)N3)ncc1C(F)(F)F)S(C)(=O)=O [PF-00562271],IC50,COLO-824,> 2560 nM
same,IC50,DMS-79,> 2560 nM
same,IC50,EKVX,> 2560 nM
same,IC50,ETK-1,2280 nM
same,IC50,EW-18,> 2560 nM
same,IC50,GI-1,> 2560 nM
same,IC50,HCC1187,> 2560 nM
same,IC50,HCC38,> 2560 nM
same,IC50,HSC-3,> 2560 nM
same,IC50,JEG-3,> 2560 nM
same,IC50,K5,> 2560 nM
same,IC50,KARPAS-45,> 2560 nM
same,IC50,KU812 cell line,> 2560 nM
same,IC50,KYSE-140,> 2560 nM
same,IC50,KYSE-270,1050 nM
same,IC50,LS-1034,> 2560 nM
same,IC50,MDA-MB-157,> 2560 nM
same,IC50,MDA-MB-231,2500 nM
same,IC50,MEL-HO,1980 nM
same,IC50,NB13,> 2560 nM
same,IC50,NB69,> 2560 nM
same,IC50,NCI-H1304,> 2560 nM
same,IC50,NCI-H1355,> 2560 nM
same,IC50,NCI-H292,> 2560 nM
same,IC50,NCI-H596,> 2560 nM
same,IC50,NUGC-3,> 2560 nM
same,IC50,OCI-AML2,> 2560 nM
same,IC50,OMC-1,> 2560 nM
same,IC50,RERF-LC-MS,> 2560 nM
same,IC50,RPMI-7951,> 2560 nM
same,IC50,SCC-15,> 2560 nM
same,IC50,SK-LU-1,> 2560 nM
same,IC50,SK-PN-DW,> 2560 nM
same,IC50,SK-UT-1,1450 nM
same,IC50,SW1783,> 2560 nM
same,IC50,SW626,> 2560 nM
same,IC50,SW948,> 2560 nM
same,IC50,SiHa,> 2560 nM
same,IC50,T84,> 2560 nM
same,IC50,ALL-PO,1020 nM
same,IC50,ATN-1,> 2560 nM
same,IC50,BB30-HNC,> 2560 nM
same,IC50,CAL-85-1,1800 nM
same,IC50,TE-8,> 2560 nM
same,IC50,TK-10,> 2560 nM
same,IC50,U-118-MG,> 2560 nM
same,IC50,UO-31,> 2560 nM
same,IC50,UMUC3,> 2560 nM
same,IC50,CCRF-CEM,> 2560 nM
same,IC50,COLO-320-HSR,> 2560 nM
same,IC50,COLO-668,> 2560 nM
same,IC50,COLO-684,> 2560 nM
Cn1cncc1[C@@](N)(c1ccc(Cl)cc1)c1ccc2c(c1)c(-c1cccc(Cl)c1)cc(=O)n2C [TIPIFARNIB],IC50,COLO-824,> 16000 nM
same,IC50,DMS-79,> 16000 nM
same,IC50,EKVX,> 16000 nM
same,IC50,ETK-1,21.5 nM
same,IC50,EW-18,458 nM
same,IC50,GI-1,4420 nM
same,IC50,HCC1187,7610 nM
same,IC50,HCC38,6100 nM
same,IC50,HSC-3,2630 nM
same,IC50,JEG-3,8610 nM
same,IC50,K5,> 16000 nM
same,IC50,KARPAS-45,12900 nM
same,IC50,KU812 cell line,97.1 nM
same,IC50,KYSE-140,1110 nM
same,IC50,KYSE-270,217 nM
same,IC50,LS-1034,2460 nM
same,IC50,MDA-MB-157,14700 nM
same,IC50,MDA-MB-231,5830 nM
same,IC50,MEL-HO,2240 nM
same,IC50,NB13,4620 nM
same,IC50,NB69,> 16000 nM
same,IC50,NCI-H1304,> 16000 nM
same,IC50,NCI-H1355,974 nM
same,IC50,NCI-H292,9280 nM
same,IC50,NCI-H596,1820 nM
same,IC50,NUGC-3,4190 nM
same,IC50,OCI-AML2,2030 nM
same,IC50,OMC-1,6490 nM
same,IC50,RERF-LC-MS,> 16000 nM
same,IC50,RPMI-7951,13500 nM
same,IC50,SCC-15,10800 nM
same,IC50,SK-LU-1,3550 nM
same,IC50,SK-PN-DW,15500 nM
same,IC50,SK-UT-1,4860 nM
same,IC50,SW1783,1260 nM
same,IC50,SW626,1370 nM
same,IC50,SW948,> 16000 nM
same,IC50,SiHa,> 16000 nM
same,IC50,T84,546 nM
same,IC50,ALL-PO,555 nM
same,IC50,ATN-1,2540 nM
same,IC50,BB30-HNC,585 nM
same,IC50,CAL-85-1,1250 nM
same,IC50,TE-8,928 nM
same,IC50,TK-10,5680 nM
same,IC50,U-118-MG,> 16000 nM
same,IC50,UO-31,10700 nM
same,IC50,UMUC3,12600 nM
same,IC50,CCRF-CEM,1640 nM
same,IC50,COLO-320-HSR,13600 nM
same,IC50,COLO-668,3390 nM
same,IC50,COLO-684,5710 nM
COc1cc([C@@H]2c3cc4c(cc3[C@@H](O[C@@H]3O[C@@H]5CO[C@@H](C)O[C@H]5[C@H](O)[C@H]3O)[C@H]3COC(=O)[C@H]23)OCO4)cc(OC)c1O [ETOPOSIDE],IC50,COLO-824,> 16000 nM
same,IC50,DMS-79,> 16000 nM
same,IC50,EKVX,> 16000 nM
same,IC50,ETK-1,2750 nM
same,IC50,EW-18,> 16000 nM
same,IC50,GI-1,713 nM
same,IC50,HCC1187,> 16000 nM
same,IC50,HCC38,2270 nM
same,IC50,HSC-3,1440 nM
same,IC50,JEG-3,3040 nM
same,IC50,K5,> 16000 nM
same,IC50,KARPAS-45,> 16000 nM
same,IC50,KU812 cell line,2030 nM
same,IC50,KYSE-140,4920 nM
same,IC50,KYSE-270,252 nM
same,IC50,LS-1034,> 16000 nM
same,IC50,MDA-MB-157,12600 nM
same,IC50,MDA-MB-231,9090 nM
same,IC50,MEL-HO,729 nM
same,IC50,NB13,2760 nM
same,IC50,NB69,1090 nM
same,IC50,NCI-H1304,2300 nM
same,IC50,NCI-H1355,390 nM
same,IC50,NCI-H292,4710 nM
same,IC50,NCI-H596,> 16000 nM
same,IC50,NUGC-3,981 nM
same,IC50,OCI-AML2,559 nM
same,IC50,OMC-1,> 16000 nM
same,IC50,RERF-LC-MS,2490 nM
same,IC50,RPMI-7951,2290 nM
same,IC50,SCC-15,13100 nM
same,IC50,SK-LU-1,1290 nM
same,IC50,SK-PN-DW,342 nM
same,IC50,SK-UT-1,42.4 nM
same,IC50,SW1783,3060 nM
same,IC50,SW626,8900 nM
same,IC50,SW948,> 16000 nM
same,IC50,SiHa,> 16000 nM
same,IC50,T84,> 16000 nM
same,IC50,ALL-PO,690 nM
same,IC50,ATN-1,204 nM
same,IC50,BB30-HNC,64.2 nM
same,IC50,CAL-85-1,2160 nM
same,IC50,TE-8,8750 nM
same,IC50,TK-10,7490 nM
same,IC50,U-118-MG,> 16000 nM
same,IC50,UO-31,11300 nM
same,IC50,UMUC3,1150 nM
same,IC50,CCRF-CEM,170 nM
same,IC50,COLO-320-HSR,9730 nM
same,IC50,COLO-668,1660 nM
same,IC50,COLO-684,> 16000 nM
